Assay results as given in PubChem BioAssay AID651650 (Sanford-Burnham Center for Chemical Genomics, 2012).
Active and inactive are the calls of the source.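 Rule for the calls: active = mean IC50 below 20 µM in each of the two panels, so potent in both; inactive = the rest.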

Biological target: Neuropilin-1 (Homo sapiens) (UniProt O14786)
Experiment: NRP-1 b1b2 CendR peptide binding inhibitors, dose response, biochemical, FP and AlphaScreen panel (AID 651650)
Conditions: NRP-1 b1b2 / RPARPAR peptide binding, FP or AlphaScreen
[1] = AlphaScreen, run 1, individual panel run IC50
[2] = FP, run 1, individual panel run IC50
[3] = FP, run 2, individual panel run IC50

Sequence of Neuropilin-1 (Homo sapiens) (O14786 whole entry, looked up): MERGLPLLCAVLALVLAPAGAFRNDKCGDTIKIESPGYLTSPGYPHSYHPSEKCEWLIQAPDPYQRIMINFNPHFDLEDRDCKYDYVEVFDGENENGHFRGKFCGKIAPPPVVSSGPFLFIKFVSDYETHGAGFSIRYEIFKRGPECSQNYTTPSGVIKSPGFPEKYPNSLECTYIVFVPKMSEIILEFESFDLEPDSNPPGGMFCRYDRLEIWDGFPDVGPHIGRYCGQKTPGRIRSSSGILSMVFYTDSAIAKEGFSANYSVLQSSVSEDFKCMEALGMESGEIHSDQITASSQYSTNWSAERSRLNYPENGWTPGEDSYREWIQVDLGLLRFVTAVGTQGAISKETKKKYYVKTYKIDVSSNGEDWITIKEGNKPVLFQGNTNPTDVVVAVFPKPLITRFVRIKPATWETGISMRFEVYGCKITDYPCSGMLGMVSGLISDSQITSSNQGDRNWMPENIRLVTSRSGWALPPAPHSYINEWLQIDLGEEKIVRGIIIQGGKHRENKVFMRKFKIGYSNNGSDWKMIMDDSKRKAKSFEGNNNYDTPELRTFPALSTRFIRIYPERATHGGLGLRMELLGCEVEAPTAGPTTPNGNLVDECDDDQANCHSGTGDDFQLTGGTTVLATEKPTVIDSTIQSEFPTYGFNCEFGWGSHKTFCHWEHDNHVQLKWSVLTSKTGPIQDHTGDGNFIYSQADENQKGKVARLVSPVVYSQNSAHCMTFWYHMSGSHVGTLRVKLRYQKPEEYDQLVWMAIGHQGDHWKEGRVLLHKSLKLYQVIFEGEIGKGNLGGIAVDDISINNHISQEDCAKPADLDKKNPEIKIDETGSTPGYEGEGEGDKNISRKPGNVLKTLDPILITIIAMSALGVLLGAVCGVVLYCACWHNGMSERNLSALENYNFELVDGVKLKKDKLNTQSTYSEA

**Q.** Which results are given for `O=C(COc1cc(Cl)c(Cl)cc1Cl)Nc1ccc([N+](=O)[O-])cc1Cl`?
**A.** IC50 (AlphaScreen, mean of runs): > 100 µM (inactive); IC50 [1]: > 100 µM; IC50 (FP, mean of runs): > 95 µM (inactive); IC50 [2]: > 95 µM; IC50 [3]: > 95 µM

**Q.** With `COc1ccc2c(c1)N(C)/C(=C1/SC(=NCc3ccccc3)N(c3ccccc3)C1=O)S2` as the compound, how does the IC50 (AlphaScreen, mean of runs) read?
**A.** > 100 µM (inactive)

**Q.** And the IC50 [1]?
**A.** > 100 µM

**Q.** What about the IC50 (FP, mean of runs) of the same compound?
**A.** > 95 µM (inactive)

**Q.** What about the IC50 [2] of the same compound?
**A.** > 95 µM

**Q.** What about the IC50 [3] of the same compound?
**A.** > 95 µM

**Q.** For `CC(O)(c1cccnc1)c1nc(/C=C/c2ccccc2)cs1` (stereo not given), which IC50 (AlphaScreen, mean of runs) is on record?
**A.** > 100 µM (inactive)

**Q.** What about the IC50 [1] of the same compound?
**A.** > 100 µM

**Q.** And the IC50 (FP, mean of runs)?
**A.** > 95 µM (inactive)

**Q.** And the IC50 [2]?
**A.** > 95 µM

**Q.** And the IC50 [3]?
**A.** > 95 µM

**Q.** For `COc1ccccc1N1CCN(C2CCCN(C(=O)Cn3cccn3)C2)CC1` (stereo not given), which IC50 (AlphaScreen, mean of runs) is on record?
**A.** > 100 µM (inactive)

**Q.** And the IC50 [1]?
**A.** > 100 µM

**Q.** And the IC50 (FP, mean of runs)?
**A.** > 95 µM (inactive)

**Q.** What about the IC50 [2] of the same compound?
**A.** > 95 µM

**Q.** What about the IC50 [3] of the same compound?
**A.** > 95 µM

**Q.** For `COC(=O)c1ccc(Cn2nnc3c(=O)[nH]c(C4CCCN(S(=O)(=O)c5cccc(Cl)c5)C4)nc32)cc1` (stereo not given), which IC50 (AlphaScreen, mean of runs) is on record?
**A.** > 100 µM (inactive)

**Q.** What about the IC50 [1] of the same compound?
**A.** > 100 µM

**Q.** And the IC50 (FP, mean of runs)?
**A.** > 95 µM (inactive)

**Q.** And the IC50 [2]?
**A.** > 95 µM

**Q.** What about the IC50 [3] of the same compound?
**A.** > 95 µM

**Q.** What does the source list for `O=C(Cc1ccccc1Cl)N1CCOCC1`?
**A.** IC50 (AlphaScreen, mean of runs): > 100 µM (inactive); IC50 [1]: > 100 µM; IC50 (FP, mean of runs): > 95 µM (inactive); IC50 [2]: > 95 µM; IC50 [3]: > 95 µM

**Q.** `CCCN=C1N/C(=C\c2ccco2)C(=O)N1c1ccccc1` was tested. Which IC50 (AlphaScreen, mean of runs) did it give?
**A.** > 100 µM (inactive)

**Q.** What about the IC50 [1] of the same compound?
**A.** > 100 µM

**Q.** What about the IC50 (FP, mean of runs) of the same compound?
**A.** > 95 µM (inactive)

**Q.** What about the IC50 [2] of the same compound?
**A.** > 95 µM

**Q.** And the IC50 [3]?
**A.** > 95 µM

**Q.** With `CNc1nc(-c2ccc3c(c2)CCN3C(=O)c2ccccc2F)cs1` as the compound, how does the IC50 (AlphaScreen, mean of runs) read?
**A.** > 100 µM (inactive)

**Q.** And the IC50 [1]?
**A.** > 100 µM

**Q.** And the IC50 (FP, mean of runs)?
**A.** > 95 µM (inactive)

**Q.** What about the IC50 [2] of the same compound?
**A.** > 95 µM

**Q.** What about the IC50 [3] of the same compound?
**A.** > 95 µM

**Q.** Which results are given for `CCCNC(=O)[C@H]1N2C(=O)c3c(ccc(OC)c3OC)C2SC1(C)C` (stereo not given in full)?
**A.** IC50 (AlphaScreen, mean of runs): inactive; IC50 [1]: 62.5 µM; IC50 (FP, mean of runs): > 95 µM (inactive); IC50 [2]: > 95 µM; IC50 [3]: > 95 µM

**Q.** What does the source list for `Cc1cc(N/C(=N/S(=O)(=O)c2cc(F)ccc2F)c2ccccc2)n(-c2ccccc2)n1`?
**A.** IC50 (AlphaScreen, mean of runs): > 100 µM (inactive); IC50 [1]: > 100 µM; IC50 (FP, mean of runs): > 95 µM (inactive); IC50 [2]: > 95 µM; IC50 [3]: > 95 µM

**Q.** What does the source list for `O=[N+]([O-])c1ccc(-n2nnnc2CN2CCCCC2)cc1`?
**A.** IC50 (AlphaScreen, mean of runs): > 100 µM (inactive); IC50 [1]: > 100 µM; IC50 (FP, mean of runs): > 95 µM (inactive); IC50 [2]: > 95 µM; IC50 [3]: > 95 µM

**Q.** How did the IC50 (AlphaScreen, mean of runs) turn out when `COC(=O)n1c(=O)oc2ccccc21` was run?
**A.** > 100 µM (inactive)

**Q.** And the IC50 [1]?
**A.** > 100 µM

**Q.** And the IC50 (FP, mean of runs)?
**A.** > 95 µM (inactive)

**Q.** What about the IC50 [2] of the same compound?
**A.** > 95 µM

**Q.** And the IC50 [3]?
**A.** > 95 µM

**Q.** For `COc1ccncc1-c1csc(C(O)c2ccccc2)n1` (stereo not given), which IC50 (AlphaScreen, mean of runs) is on record?
**A.** > 100 µM (inactive)

**Q.** And the IC50 [1]?
**A.** > 100 µM

**Q.** What about the IC50 (FP, mean of runs) of the same compound?
**A.** > 95 µM (inactive)

**Q.** What about the IC50 [2] of the same compound?
**A.** > 95 µM

**Q.** And the IC50 [3]?
**A.** > 95 µM

**Q.** For `O=C1c2cc([N+](=O)[O-])cc3cc([N+](=O)[O-])cc(c23)C(=O)N1c1ccccn1`, which IC50 (AlphaScreen, mean of runs) is on record?
**A.** > 100 µM (inactive)

**Q.** And the IC50 [1]?
**A.** > 100 µM

**Q.** And the IC50 (FP, mean of runs)?
**A.** > 95 µM (inactive)

**Q.** And the IC50 [2]?
**A.** > 95 µM

**Q.** And the IC50 [3]?
**A.** > 95 µM

**Q.** Which results are given for `FC(F)(F)c1cc(C(F)(F)F)c2ccc(Oc3ccccc3)nc2n1`?
**A.** IC50 (AlphaScreen, mean of runs): > 100 µM (inactive); IC50 [1]: > 100 µM; IC50 (FP, mean of runs): > 95 µM (inactive); IC50 [2]: > 95 µM; IC50 [3]: > 95 µM

**Q.** Which results are given for `CCOC(=O)C[C@H]1c2cc(C(F)(F)F)ccc2S(=O)(=O)N1Cc1ccccc1`?
**A.** IC50 (AlphaScreen, mean of runs): > 100 µM (inactive); IC50 [1]: > 100 µM; IC50 (FP, mean of runs): > 95 µM (inactive); IC50 [2]: > 95 µM; IC50 [3]: > 95 µM

**Q.** `CCOC(=O)C1=C(O)C(=O)N(c2ccccc2)C1c1cccc([N+](=O)[O-])c1` (stereo not given) was tested. Which IC50 (AlphaScreen, mean of runs) did it give?
**A.** > 100 µM (inactive)

**Q.** And the IC50 [1]?
**A.** > 100 µM

**Q.** And the IC50 (FP, mean of runs)?
**A.** > 95 µM (inactive)

**Q.** And the IC50 [2]?
**A.** > 95 µM

**Q.** And the IC50 [3]?
**A.** > 95 µM

**Q.** With `C#CCOc1nc(C)cc(C)c1S(=O)(=O)c1ccccc1C` as the compound, how does the IC50 (AlphaScreen, mean of runs) read?
**A.** > 100 µM (inactive)

**Q.** What about the IC50 [1] of the same compound?
**A.** > 100 µM

**Q.** What about the IC50 (FP, mean of runs) of the same compound?
**A.** > 95 µM (inactive)

**Q.** And the IC50 [2]?
**A.** > 95 µM

**Q.** And the IC50 [3]?
**A.** > 95 µM
